The source made the active and inactive calls. Cut-off read from the data, not from the text of the source, for most assays here: actives have a measured EC50 and inactives only a lower limit.
Experiments:
[1] = target: Luciferin 4-monooxygenase (Photinus pyralis, UniProt P08659); assay: firefly luciferase enzyme inhibitors, dose response, biochemical, luminescence (AID 1891)
[2] = Luminescence Cell-Based Dose Confirmation HTS to Identify Inhibitors of Platelet Dense Granule Release. [Related pubchem assays: 1663 (Primary HTS), 1678 (Summary of Project)]; type: functional
BJ [3] = assay: cytotoxicity toward BJ-TERT-LT-ST fibroblasts, dose response, cell-based, RAS-independent, luminescence (AID 1935); type: functional; details: Homo sapiens;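 note: BJ fibroblasts immortalized with TERT plus LT and ST oncogenes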
BJ [4] = assay: cytotoxicity toward BJ-TERT fibroblasts, dose response, cell-based, RAS-independent, luminescence (AID 1933); type: functional; details: Homo sapiens
[5] = cytotoxicity toward DRD oncogenic fibroblasts, dose response, cell-based, non-viral oncogenic, luminescence (AID 1934); type: functional; details: Homo sapiens
BJ [6] = assay: cells; type: functional, cell-based; details: Homo sapiens
[7] = target: T1, Zinc finger protein mex-5 (Caenorhabditis elegans, UniProt Q9XUB2); assay: MEX-5/TCR-2 RNA interaction inhibitors, dose response, biochemical, C. elegans, fluorescence polarization (AID 1960)
T1 sequence (Q9XUB2 whole entry): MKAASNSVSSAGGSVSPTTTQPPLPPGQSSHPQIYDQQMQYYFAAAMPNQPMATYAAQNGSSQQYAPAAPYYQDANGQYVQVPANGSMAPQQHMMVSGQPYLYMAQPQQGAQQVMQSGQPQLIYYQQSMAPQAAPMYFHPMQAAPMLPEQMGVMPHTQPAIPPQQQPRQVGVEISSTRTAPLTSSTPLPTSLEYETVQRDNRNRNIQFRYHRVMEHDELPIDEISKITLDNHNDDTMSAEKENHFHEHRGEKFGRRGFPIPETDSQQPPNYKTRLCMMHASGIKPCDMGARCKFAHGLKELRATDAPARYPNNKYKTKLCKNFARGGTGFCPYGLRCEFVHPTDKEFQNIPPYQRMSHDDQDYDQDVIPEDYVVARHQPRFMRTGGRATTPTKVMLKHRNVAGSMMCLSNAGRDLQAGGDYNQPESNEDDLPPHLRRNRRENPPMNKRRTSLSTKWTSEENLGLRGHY

[8] = target: T2, RNA-binding protein pos-1 (Caenorhabditis elegans, UniProt G5EF15); assay: inhibitors of POS-1/mex-3 RNA binding, dose response, biochemical, fluorescence polarization (AID 1964);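 note: purified POS-1 fused to maltose binding protein made in E. coli; potency of compounds blocking POS-1 binding to fluorescent RNA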
T2 sequence (G5EF15 whole entry): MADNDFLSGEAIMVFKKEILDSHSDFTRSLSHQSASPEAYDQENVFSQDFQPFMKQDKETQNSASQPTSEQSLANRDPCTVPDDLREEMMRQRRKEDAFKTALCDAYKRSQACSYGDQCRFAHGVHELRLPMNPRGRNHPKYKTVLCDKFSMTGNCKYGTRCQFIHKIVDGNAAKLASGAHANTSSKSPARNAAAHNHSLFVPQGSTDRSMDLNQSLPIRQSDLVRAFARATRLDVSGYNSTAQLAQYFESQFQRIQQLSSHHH

Large T antigen = Large T antigen (Simian virus 40, UniProt P03070); type: functional, Betapolyomavirus macacae;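 note: Confirmatory-stage PubChem screen for compounds that inhibit SV40 T antigen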
[9] = inhibitors of SNCA 5'UTR-driven reporter translation, confirmation, H4 neuroglioma cells, luminescence (AID 1988); type: functional, cell-based
[10] = target: T3, Heat shock factor protein 1 (Mus musculus, UniProt P38532); assay: HSF1 potentiators in luciferase reporter cells, confirmation, cell-based, NIH3T3, luminescence, dose retest (AID 435004); type: functional;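 note: stress induced by proteasome inhibitor MG132 added 30 min after compound; luciferase reporter driven by HSF1 response element in NIH3T3 cells; actives raise luminescence as potentiators of the MG132 stress response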
T3 sequence (P38532 whole entry): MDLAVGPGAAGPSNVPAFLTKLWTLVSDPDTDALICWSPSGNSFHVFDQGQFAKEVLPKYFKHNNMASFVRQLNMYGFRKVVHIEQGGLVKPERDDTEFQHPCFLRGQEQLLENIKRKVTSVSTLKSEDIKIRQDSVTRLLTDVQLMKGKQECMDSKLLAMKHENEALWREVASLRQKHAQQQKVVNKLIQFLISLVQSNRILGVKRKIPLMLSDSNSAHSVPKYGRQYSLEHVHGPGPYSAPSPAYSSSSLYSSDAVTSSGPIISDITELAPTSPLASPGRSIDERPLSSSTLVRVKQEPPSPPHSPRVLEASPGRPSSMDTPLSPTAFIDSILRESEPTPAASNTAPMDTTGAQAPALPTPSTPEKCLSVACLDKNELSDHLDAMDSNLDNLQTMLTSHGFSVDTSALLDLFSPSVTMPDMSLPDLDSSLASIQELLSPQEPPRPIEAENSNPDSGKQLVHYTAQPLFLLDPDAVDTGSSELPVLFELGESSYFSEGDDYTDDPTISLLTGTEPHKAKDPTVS

Large T antigen, sequence (P03070 whole entry): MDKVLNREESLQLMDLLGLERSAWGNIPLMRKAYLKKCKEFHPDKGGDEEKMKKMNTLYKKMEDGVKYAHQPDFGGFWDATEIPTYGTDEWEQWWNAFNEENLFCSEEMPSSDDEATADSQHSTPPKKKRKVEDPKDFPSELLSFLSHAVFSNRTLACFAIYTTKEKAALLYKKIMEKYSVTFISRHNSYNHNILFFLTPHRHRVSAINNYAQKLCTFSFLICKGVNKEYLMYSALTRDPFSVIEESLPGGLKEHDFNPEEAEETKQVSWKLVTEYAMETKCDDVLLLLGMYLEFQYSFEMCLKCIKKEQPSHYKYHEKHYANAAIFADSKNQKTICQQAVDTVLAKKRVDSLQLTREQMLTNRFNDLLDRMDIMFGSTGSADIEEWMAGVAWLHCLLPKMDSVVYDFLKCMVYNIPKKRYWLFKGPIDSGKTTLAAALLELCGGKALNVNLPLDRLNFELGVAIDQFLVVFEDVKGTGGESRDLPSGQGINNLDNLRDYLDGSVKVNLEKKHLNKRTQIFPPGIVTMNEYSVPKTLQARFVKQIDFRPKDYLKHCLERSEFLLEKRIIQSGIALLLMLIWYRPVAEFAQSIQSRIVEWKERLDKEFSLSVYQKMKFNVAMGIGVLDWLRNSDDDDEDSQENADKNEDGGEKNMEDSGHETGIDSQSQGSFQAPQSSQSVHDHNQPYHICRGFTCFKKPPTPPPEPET
Luciferin 4-monooxygenase, sequence (P08659 whole entry): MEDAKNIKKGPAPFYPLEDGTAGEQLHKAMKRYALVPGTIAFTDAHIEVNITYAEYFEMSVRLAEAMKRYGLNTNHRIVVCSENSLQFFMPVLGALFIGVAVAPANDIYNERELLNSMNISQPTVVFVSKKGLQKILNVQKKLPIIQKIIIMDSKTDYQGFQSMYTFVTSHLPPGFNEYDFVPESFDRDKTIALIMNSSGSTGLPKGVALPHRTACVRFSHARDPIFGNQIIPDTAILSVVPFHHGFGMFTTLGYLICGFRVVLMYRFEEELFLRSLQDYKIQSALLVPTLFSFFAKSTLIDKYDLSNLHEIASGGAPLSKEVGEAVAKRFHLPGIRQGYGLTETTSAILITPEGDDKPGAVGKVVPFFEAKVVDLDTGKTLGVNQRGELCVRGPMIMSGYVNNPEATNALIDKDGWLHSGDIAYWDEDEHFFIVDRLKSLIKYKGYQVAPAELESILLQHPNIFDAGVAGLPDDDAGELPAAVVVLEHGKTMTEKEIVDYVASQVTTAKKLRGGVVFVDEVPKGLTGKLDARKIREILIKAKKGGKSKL

In the case of Cn1c(=O)c2c(nc(CN3CCOCC3)n2CC(=O)c2ccccc2)n(C)c1=O, the EC50 [1] is reported as > 112 µM (not active) and the EC50 [2] is reported as 39 µM (active).
For CC(C)(C)NC(=O)CN1CCN(C(=O)CCl)CC1, the EC50 (BJ [3]) was > 150 µM (not active), the EC50 (BJ [4]) was > 150 µM (not active) and the EC50 [5] was > 150 µM (not active). For the same compound, the EC50 (BJ [6]) was > 150 µM (inconclusive).
With Cc1nnc(NC(=O)CSc2cn(CCNC(=O)c3ccccc3)c3ccccc23)s1 the EC50 [1] was > 112 µM (not active) and the EC50 [2] was 80 µM (active).
With O=C(OCC(=O)c1ccco1)c1ccc2ncsc2c1 the EC50 [7] was > 300 µM (not active) and the EC50 [8] was > 300 µM (not active).
With COc1cc(Cl)ccc1OCc1cc(C(=O)N2C[C@]3(C)C[C@H]2CC(C)(C)C3)no1 the EC50 [1] was 27 µM (active) and the EC50 [2] was > 112 µM (not active).
For Cc1c(C(=O)O)cccc1-n1c(C)cc(C=O)c1C, the EC50 [7] was > 300 µM (not active) and the EC50 [8] was > 300 µM (not active).
For Cc1ccc(S(=O)(=O)CCC(=O)Oc2ccc3c(C)cc(=O)oc3c2)cc1, the IC50 (Large T antigen) was 48.6 µM (active).
In the case of O=C(C(Cc1ccccc1)n1cccc1)N1CCN(c2ncccn2)CC1 (centres undefined), the EC50 [1] is reported as > 112 µM (not active) and the EC50 [2] is reported as > 112 µM (not active).
For Cc1c(Cl)cccc1NC(=O)Nc1ccc(C(=O)N2CCCC2)cc1, the EC50 [1] was 1.94 µM (active) and the EC50 [2] was 30.4 µM (active).
For Oc1nc(/C=C/c2ccccc2F)nc2ccccc12, the EC50 (BJ [3]) was 29.3 µM (inconclusive), the EC50 (BJ [4]) was 2.12 µM (active) and the EC50 [9] was 7.23 µM (inconclusive). The EC50 [5] was 2.25 µM (active) and the EC50 (BJ [6]) was 45.2 µM (inconclusive).
With COc1cc(SC)ccc1C(=O)N1CCN(Cc2ccccc2)CC1 the IC50 (Large T antigen) was 53.8 µM (active).
With COc1ccc(NC(=O)CN2CCC(NC(=O)C3CCCCC3)CC2)c([N+](=O)[O-])c1 the EC50 [7] was > 300 µM (not active) and the EC50 [8] was 67.9 µM (active).
In the case of Cc1cccc(-c2cnn(-c3ccccc3)c2N)c1, the EC50 [1] is reported as 46 µM (active) and the EC50 [2] is reported as 31.7 µM (active).
In the case of Cc1ccnc(NC(=O)c2ccoc2C)c1, the EC50 [1] is reported as 17.5 µM (active) and the EC50 [2] is reported as 3.51 µM (active).
With CCOC(=O)C1CCN(C(=O)c2ccc3c(c2)NC(=O)/C(=C\c2ccc(C)cc2)S3)CC1 the EC50 [7] was 30.8 µM (active) and the EC50 [8] was 7.37 µM (active).
With CSc1ccc(C(=O)C2CCCN(S(=O)(=O)c3c(C)noc3C)C2)cc1 (centres undefined) the EC50 [1] was > 112 µM (not active) and the EC50 [2] was > 112 µM (not active).
With O=C(CCN1C(=O)/C(=C\c2ccccc2F)SC1=S)N1CCCCC1 the EC50 (BJ [3]) was > 75 µM (not active), the EC50 (BJ [4]) was 15.8 µM (active) and the EC50 [5] was 15.5 µM (active). The EC50 (BJ [6]) was 14.4 µM (active).
For CC(=O)c1cccc(-n2nnnc2SCC(=O)N2CCCC2)c1, the EC50 [1] was > 112 µM (not active) and the EC50 [2] was > 112 µM (not active).
In the case of COc1ccc(CC(=O)NNC2=Nc3cccc4cccc2c34)cc1, the EC50 [7] is reported as > 150 µM (inconclusive) and the EC50 [8] is reported as 119 µM (inconclusive).
With O=C(Nc1ccccc1O)c1cccc(S(=O)(=O)Nc2ccccc2O)c1 the EC50 [7] was 36.2 µM (active), the EC50 [8] was 59.1 µM (active) and the EC50 [10] was > 260 µM (inactive).
In the case of Cc1cc2c(n1-c1ccc(C(=O)O)cc1)CCCCC2, the IC50 (Large T antigen) is reported as 71.2 µM (active).
With Cc1ccc(/C=N/NC(=O)c2nn(C)cc2Cl)cc1 the EC50 [1] was 19.9 µM (active) and the EC50 [2] was 16.6 µM (active).

Source: ChEMBL document CHEMBL1201862, “PubChem BioAssay data set” (2004)
